Read-outs that look alike come from different tables or passages of the source.
Target: T1, IRAK4 (Homo sapiens, UniProt Q9NWZ3)
T1 construct: Degradation of IRAK4 in OCI-LY10 was quantitatively measured using Meso Scale Discovery technology; endogenous in cells; host or cells: OCI-LY10
T1 sequence (Q9NWZ3 1-460): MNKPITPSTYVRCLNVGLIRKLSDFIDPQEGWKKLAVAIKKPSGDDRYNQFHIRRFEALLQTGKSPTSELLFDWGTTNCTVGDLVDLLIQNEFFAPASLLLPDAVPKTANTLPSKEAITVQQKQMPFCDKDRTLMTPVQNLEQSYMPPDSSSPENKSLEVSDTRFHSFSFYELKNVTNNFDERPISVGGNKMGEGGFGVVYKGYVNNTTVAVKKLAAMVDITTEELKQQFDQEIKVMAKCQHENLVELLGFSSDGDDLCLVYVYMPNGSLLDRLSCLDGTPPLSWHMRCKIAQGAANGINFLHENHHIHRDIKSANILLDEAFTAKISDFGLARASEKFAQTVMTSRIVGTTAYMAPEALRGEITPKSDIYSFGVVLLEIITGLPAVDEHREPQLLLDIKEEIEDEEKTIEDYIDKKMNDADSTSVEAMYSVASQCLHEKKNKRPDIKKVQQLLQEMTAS
Test: IRAK4 MSD Degradation in OCI-LY10
Type: cell-based
Settings: OCI-LY10 cells, MSD
Outline: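 DC50, from a three-parameter logistic fit and reported as letter bins A (<0.01 μM), B, C, D (>0.2 μM or not tested), reflects IRAK4 loss measured by MSD electrochemiluminescence in OCI-LY10 lysates. Treatment: 8 doses, 1:3 steps, top 1 to 10 μM, 4 to 24 h, 37 °C.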

[1] = 4 hrs incubation, read-out: IRAK4 degradation in OCI-LY10 at 4 hrs: DC50
[2] = 24 hrs incubation, read-out: IRAK4 degradation in OCI-LY10 at 24 hrs: DC50

| Compound | DC50 [1] [µM] | DC50 [2] [µM] |
| --- | --- | --- |
| Cn1c(=O)n(C2CCC(=O)NC2=O)c2cccc([C@H]3C[C@H](COC4CN(C[C@H]5CC[C@H](n6cc(NC(=O)c7cnn8ccc(N9C[C@H]%10C[C@@H]9CO%10)nc78)c(C(F)F)n6)CC5)C4)C3)c21 (stereo partly drawn) [I-598] | > 0.2 | < 0.01 |
| Cn1c(=O)n(C2CCC(=O)NC2=O)c2cccc(N3CC(COC4CN(C[C@H]5CC[C@H](n6cc(NC(=O)c7cnn8ccc(N9C[C@H]%10C[C@@H]9CO%10)nc78)c(C(F)F)n6)CC5)C4)C3)c21 (stereo partly drawn) [I-599] | > 0.2 | < 0.01 |
| Cn1c(=O)n(C2CCC(=O)NC2=O)c2cccc(C#CCOC3CN(C[C@H]4CC[C@H](n5cc(NC(=O)c6cnn7ccc(N8C[C@H]9C[C@@H]8CO9)nc67)c(C(F)F)n5)CC4)C3)c21 (stereo partly drawn) [I-600] | > 0.2 | > 0.2 |
| Cn1c(=O)n(C2CCC(=O)NC2=O)c2cccc(N3CC(F)(CN4CCN(C[C@H]5CC[C@H](n6cc(NC(=O)c7cnn8ccc(N9C[C@H]%10CC9CO%10)nc78)c(C(F)F)n6)CC5)CC4)C3)c21 (stereo partly drawn) [I-604] | > 0.2 | > 0.2 |
| Cn1c(=O)n(C2CCC(=O)NC2=O)c2cccc(N3CC(O)(CN4CCN(C[C@H]5CC[C@H](n6cc(NC(=O)c7cnn8ccc(N9C[C@H]%10CC9CO%10)nc78)c(C(F)F)n6)CC5)CC4)C3)c21 (stereo partly drawn) [I-605] | > 0.2 | < 0.01 |
| COC1(CN2CCN(C[C@H]3CC[C@H](n4cc(NC(=O)c5cnn6ccc(N7C[C@H]8CC7CO8)nc56)c(C(F)F)n4)CC3)CC2)CN(c2cccc3c2n(C)c(=O)n3C2CCC(=O)NC2=O)C1 (stereo partly drawn) [I-606] | > 0.2 | < 0.01 |
| Cn1c(=O)n(C2CCC(=O)NC2=O)c2cccc(OC3CN(C[C@H]4CC[C@H](n5cc6cc(NC(=O)c7cccc(C(F)(F)F)n7)ccc6n5)CC4)C3)c21 (stereo partly drawn) [I-607] | > 0.2 | 0.01 to 0.1 |
| Cn1c(=O)n(C2CCC(=O)NC2=O)c2cccc(OC3CN(C[C@H]4CC[C@H](n5cc6cc(NC(=O)c7cccc(C(F)(F)F)n7)ncc6n5)CC4)C3)c21 (stereo partly drawn) [I-608] | > 0.2 | > 0.2 |
| Cn1c(=O)n(C2CCC(=O)NC2=O)c2cccc(C3CN(C[C@H]4CC[C@H](n5cc6cc(NC(=O)c7cccc(C(F)(F)F)n7)ccc6n5)CC4)C3)c21 (stereo partly drawn) [I-609] | > 0.2 | > 0.2 |
| Cn1c(=O)n(C2CCC(=O)NC2=O)c2cccc(C3CN(C[C@H]4CC[C@H](n5cc6cc(NC(=O)c7cccc(C(F)(F)F)n7)ncc6n5)CC4)C3)c21 (stereo partly drawn) [I-610] | > 0.2 | > 0.2 |
| Cc1cccc(C(=O)Nc2ccc3nn([C@H]4CC[C@H](CN5CCC(c6cccc7c6n(C)c(=O)n7C6CCC(=O)NC6=O)C(F)(F)C5)CC4)cc3c2)n1 (stereo partly drawn) [I-611] | > 0.2 | > 0.2 |
| Cn1c(=O)n(C2CCC(=O)NC2=O)c2cccc(C3CCN(C[C@H]4CC[C@H](n5cc6cc(NC(=O)c7cccc(C#N)n7)ccc6n5)CC4)CC3(F)F)c21 (stereo partly drawn) [I-612] | > 0.2 | > 0.2 |
| Cn1c(=O)n(C2CCC(=O)NC2=O)c2cccc(C3CCN(C[C@H]4CC[C@H](n5cc6cc(NC(=O)c7cccc(C(F)F)n7)ccc6n5)CC4)CC3(F)F)c21 (stereo partly drawn) [I-613] | > 0.2 | < 0.01 |
| Cc1cccc(C(=O)Nc2cc3cn([C@H]4CC[C@H](CN5CCC(c6cccc7c6n(C)c(=O)n7C6CCC(=O)NC6=O)C(F)(F)C5)CC4)nc3cn2)n1 (stereo partly drawn) [I-614] | > 0.2 | < 0.01 |
| Cn1c(=O)n(C2CCC(=O)NC2=O)c2cccc(C3CCN(C[C@H]4CC[C@H](n5cc6cc(NC(=O)c7cccc(C#N)n7)ncc6n5)CC4)CC3(F)F)c21 (stereo partly drawn) [I-615] | > 0.2 | < 0.01 |
| Cn1c(=O)n(C2CCC(=O)NC2=O)c2cccc(C3CCN(C[C@H]4CC[C@H](n5cc6cc(NC(=O)c7cccc(C(F)F)n7)ncc6n5)CC4)CC3(F)F)c21 (stereo partly drawn) [I-616] | > 0.2 | < 0.01 |
| Cc1cccc(C(=O)Nc2cc3cn([C@H]4CC[C@H](CN5CCC(c6cccc7c6n(C)c(=O)n7C6CCC(=O)NC6=O)C(F)(F)C5)CC4)nc3cc2C(C)(C)O)n1 (stereo partly drawn) [I-617] | > 0.2 | < 0.01 |
| Cn1c(=O)n(C2CCC(=O)NC2=O)c2cccc(C3CCN(C[C@H]4CC[C@H](n5cc6cc(NC(=O)c7cccc(C#N)n7)c(C(C)(C)O)cc6n5)CC4)CC3(F)F)c21 (stereo partly drawn) [I-618] | > 0.2 | < 0.01 |
| Cn1c(=O)n(C2CCC(=O)NC2=O)c2cccc(C3CCN(C[C@H]4CC[C@H](n5cc6cc(NC(=O)c7cccc(C(F)F)n7)c(C(C)(C)O)cc6n5)CC4)CC3(F)F)c21 (stereo partly drawn) [I-619] | > 0.2 | < 0.01 |
| Cc1cccc(C(=O)Nc2ccc3nn([C@H]4CC[C@H](CN5CC[C@@H](c6cccc7c6n(C)c(=O)n7C6CCC(=O)NC6=O)[C@@H](F)C5)CC4)cc3c2)n1 (stereo partly drawn) [I-620] | > 0.2 | > 0.2 |

Next, values leading:

| DC50 [1] [µM] | DC50 [2] [µM] | Compound |
| --- | --- | --- |
| > 0.2 | > 0.2 | Cn1c(=O)n(C2CCC(=O)NC2=O)c2cccc(C#CCO[C@H]3CCN(C[C@H]4CC[C@H](n5cc(NC(=O)c6cnn7ccc(N8CCS(=O)(=O)CC8)nc67)c(C(F)F)n5)CC4)C[C@@H]3F)c21 (stereo partly drawn) [I-591] |
| > 0.2 | > 0.2 | Cn1c(=O)n(C2CCC(=O)NC2=O)c2cccc(C#CCO[C@H]3CCN(C[C@H]4CC[C@H](n5cc(NC(=O)c6cnn7ccc(N8CCS(=O)(=O)CC8)nc67)c(C(F)F)n5)CC4)C[C@H]3F)c21 (stereo partly drawn) [I-592] |
| > 0.2 | > 0.2 | Cn1c(=O)n(C2CCC(=O)NC2=O)c2cccc([C@H]3C[C@H](O[C@@H]4CCN(C[C@H]5CC[C@H](n6cc(NC(=O)c7cnn8ccc(N9C[C@H]%10C[C@@H]9CO%10)nc78)c(C(F)F)n6)CC5)C[C@@H]4F)C3)c21 (stereo partly drawn) [I-593] |
| > 0.2 | > 0.2 | Cn1c(=O)n(C2CCC(=O)NC2=O)c2cccc([C@H]3C[C@H](O[C@@H]4CCN(C[C@H]5CC[C@H](n6cc(NC(=O)c7cnn8ccc(N9C[C@H]%10C[C@@H]9CO%10)nc78)c(C(F)F)n6)CC5)C[C@H]4F)C3)c21 (stereo partly drawn) [I-594] |
| > 0.2 | > 0.2 | Cn1c(=O)n(C2CCC(=O)NC2=O)c2cccc([C@H]3C[C@H](O[C@H]4CCN(C[C@H]5CC[C@H](n6cc(NC(=O)c7cnn8ccc(N9C[C@H]%10C[C@@H]9CO%10)nc78)c(C(F)F)n6)CC5)C[C@@H]4F)C3)c21 (stereo partly drawn) [I-595] |
| > 0.2 | > 0.2 | Cn1c(=O)n(C2CCC(=O)NC2=O)c2cccc([C@H]3C[C@H](O[C@H]4CCN(C[C@H]5CC[C@H](n6cc(NC(=O)c7cnn8ccc(N9C[C@H]%10C[C@@H]9CO%10)nc78)c(C(F)F)n6)CC5)C[C@H]4F)C3)c21 (stereo partly drawn) [I-596] |
| > 0.2 | < 0.01 | Cn1c(=O)n(C2CCC(=O)NC2=O)c2cccc([C@H]3C[C@@H](COC4CN(C[C@H]5CC[C@H](n6cc(NC(=O)c7cnn8ccc(N9C[C@H]%10C[C@@H]9CO%10)nc78)c(C(F)F)n6)CC5)C4)C3)c21 (stereo partly drawn) [I-597] |
| > 0.2 | > 0.2 | Cn1c(=O)n(C2CCC(=O)NC2=O)c2cccc(N3CC(OC4CCN(C[C@H]5CC[C@H](n6cc(NC(=O)c7cnn8ccc(N9C[C@H]%10C[C@@H]9CO%10)nc78)c(C(F)F)n6)CC5)CC4)C3)c21 (stereo partly drawn) [I-601] |
| > 0.2 | > 0.2 | CN(C[C@H]1CC[C@H](n2cc(NC(=O)c3cnn4ccc(N5C[C@H]6C[C@@H]5CO6)nc34)c(C(F)F)n2)CC1)C1CN(c2cccc3c2n(C)c(=O)n3C2CCC(=O)NC2=O)C1 (stereo partly drawn) [I-602] |
| > 0.2 | > 0.2 | C[C@H]1CN(c2ccn3ncc(C(=O)Nc4cn([C@H]5CC[C@H](CN(C)C6CN(c7cccc8c7n(C)c(=O)n8C7CCC(=O)NC7=O)C6)CC5)nc4C(F)F)c3n2)CCO1 (stereo partly drawn) [I-603] |
